Calls of active or inactive are those of the source.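 Rule for the calls: active = fitted curve reaches -35% activity change at a concentration below twice the top valid dose tested; inactive = the rest, including effects opposite to the expected direction.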

One assay in a line: EWS/Fli1-dependent A673 cell killing, confirmation, CellTiter-Glo luminescence, cherry-pick retest (AID 720587). The settings on record: A673 Ewing sarcoma viability, CellTiter-Glo ATP luminescence, 72 h; at 8 µM (top of the series). On the technique in general: Cellular ATP, detected with luciferase, serves as a proxy for viable cell number.
`COc1ccc(NS(=O)(=O)c2cc(NC(=O)CNC(=O)c3cccc(OC)c3)ccc2C)cc1`: the activity change, negative = cytotoxicity was 12.2% (inactive).

Staying with this assay, now noted: A673 Ewing sarcoma viability, CellTiter-Glo ATP luminescence, 72 h; at 26 µM (top of the series).
On to `O=c1c2ccccc2oc2cc(C#CC3(O)CCCCC3)ccc12`, for which the activity change, negative = cytotoxicity was 6.95% (inactive).

Consider `COC(=O)c1cccc(NC(=O)NC(=O)c2ccccc2Cl)c1`, for which the activity change, negative = cytotoxicity is -9.77% (inactive).

With `O=C(Nc1cccc(Oc2ccc3c(c2)C(=O)NC3=O)c1)c1cccs1`, the activity change, negative = cytotoxicity is -6.77% (inactive).

In the case of `CCOC(=O)Cc1ccc(NC(=O)c2ccccc2Br)cc1`, the activity change, negative = cytotoxicity is -0.788% (inactive).

With `COc1ccc2nc(-c3ccc(F)cc3)sc2c1`, the activity change, negative = cytotoxicity is -14.9% (inactive).

`Nc1ccc(Oc2ccccc2-c2ccccc2)cc1`: the activity change, negative = cytotoxicity is -6.58% (inactive).

In the case of `CCOC(=O)C1CCCCN1C(=O)CCc1c(C)nc2cc(-c3ccccc3)nn2c1C` (centres undefined), the activity change, negative = cytotoxicity is -3.12% (inactive).

As to `COc1ccccc1CNC(=O)C[C@@H]1CC[C@H]2[C@@H](COC[C@H](O)CN2C(=O)Nc2ccc(C(F)(F)F)cc2)O1`, the activity change, negative = cytotoxicity was -9.47% (inactive).

For `Cc1[nH]c(=S)sc1Cc1ccc(Cl)c(Cl)c1`, the activity change, negative = cytotoxicity is 5.33% (inactive).

With `Cc1ccccc1N=CC1=C(O)c2ccccc2C1=O`, the activity change, negative = cytotoxicity is -6.09% (inactive).

With `CC(=O)c1ccc(N(C(=O)Cn2nnc3ccccc32)C(C(=O)NCc2ccccc2)c2ccccn2)cc1` (centres undefined), the activity change, negative = cytotoxicity is 3.66% (inactive).

For `CCN(CC)C(=O)CN1C(=O)C(=O)c2ccccc21`, the activity change, negative = cytotoxicity is -0.157% (inactive).

Take `COc1cccc(S(=O)(=O)N(C)C[C@H]2OCc3cnnn3CCCC(=O)N([C@@H](C)CO)C[C@H]2C)c1`: the activity change, negative = cytotoxicity was 0.226% (inactive).

Regarding `COc1ccc2oc(C(=O)NCCc3ccccc3)c(C)c2c1`, the activity change, negative = cytotoxicity is -2.64% (inactive).

In the case of `COC(=O)C[C@@H]1CC[C@@H]2[C@H](COc3ccc(NC(=O)c4ccccc4)cc3C(=O)N2C)O1`, the activity change, negative = cytotoxicity is -5.14% (inactive).

As for `CC(=O)c1ccc(N=Nc2ccc(C)cc2)cc1`, the activity change, negative = cytotoxicity was 2.05% (inactive).

In the case of `COC(=O)Cc1[nH]n(-c2nc3ccccc3s2)c(=O)c1C(C)=Nc1ccc(C)cc1`, the activity change, negative = cytotoxicity is -10.7% (inactive).

For the compound `Cc1ccsc1/C=N/Nc1cccc(C(=O)O)c1`, the activity change, negative = cytotoxicity was -8.75% (inactive).

Regarding `Cc1cc(Br)ccc1N=C1C(=O)Nc2ccccc21`, the activity change, negative = cytotoxicity was -19% (inactive).

`COc1ccc(OC)c(-c2cc(C(F)(F)F)c3c(n2)sc2c(O)cc(=O)[nH]c23)c1`: the activity change, negative = cytotoxicity was -2.54% (inactive).

For `COc1ccc2oc(-c3ccccc3)cc(=O)c2c1`, the activity change, negative = cytotoxicity was -12.3% (inactive).

Consider `CN(C)c1ccc(N=Nc2ccc(C(=O)O)cc2)cc1`, for which the activity change, negative = cytotoxicity was 1.5% (inactive).

As for `CCOc1ccc(-c2noc(CCC(=O)O)n2)cc1`, the activity change, negative = cytotoxicity was 6.68% (inactive).

Regarding `COC(=O)COc1ccc(-c2nccc(-c3ccccn3)n2)cc1`, the activity change, negative = cytotoxicity is 11.6% (inactive).

Turning to `O=C(Nc1ccc(OC(=O)N2CCCCC2)cc1)N1CCOCC1`, the activity change, negative = cytotoxicity was 1.28% (inactive).

In the case of `Cc1occc1-c1n[nH]c(=S)n1C`, the activity change, negative = cytotoxicity was 1.91% (inactive).

Take `Cc1csc(NC(=O)CCc2c(C)nc3cc(-c4ccc(Cl)cc4)nn3c2C)n1`: the activity change, negative = cytotoxicity was 1.02% (inactive).

Turning to `O=C(CNC(c1ccccc1)c1ccccc1)Nc1ccccc1-c1ccccc1`, the activity change, negative = cytotoxicity is -1.93% (inactive).

On to `CC(C)CN(C(=O)CN1CCOCC1)c1c(N)n(CC(C)C)c(=O)[nH]c1=O`, for which the activity change, negative = cytotoxicity was -1.6% (inactive).

With `N#C[C@@H]1[C@H](c2ccc(C#Cc3cccc(F)c3)cc2)[C@@H](CO)N1C(=O)C1CCCC1`, the activity change, negative = cytotoxicity is -2.07% (inactive).

As to `CC1(CCc2ccccc2)NC(=O)N(CC(=O)N2CC(=O)Nc3ccccc32)C1=O` (centres undefined), the activity change, negative = cytotoxicity is 7.32% (inactive).

`CCc1c(C(=O)NN2C(=O)C3CCCCC3C2=O)csc1C` (centres undefined): the activity change, negative = cytotoxicity was -1.99% (inactive).

For the compound `CN(C)C(=O)c1ccc(-c2ccccc2[C@@H]2[C@@H](CO)N(C(=O)C3CC3)[C@H]2C#N)cc1`, the activity change, negative = cytotoxicity is 0.679% (inactive).

Take `CN(C)C(=O)c1cccc(-c2ccc(C3[C@@H]4CN(Cc5nccs5)C[C@H]3N4)cc2)c1` (some centres undefined): the activity change, negative = cytotoxicity was -4.24% (inactive).

For the compound `O=C(C[C@@H]1C[C@H]2c3cc(NC(=O)CC4CC4)ccc3O[C@H]2[C@H](CO)O1)NCc1ccccc1F`, the activity change, negative = cytotoxicity is -23.9% (inactive).

In the case of `Cc1ccccc1N=Nc1c(O)n(C)c2ccccc12`, the activity change, negative = cytotoxicity is -1.37% (inactive).

With `O=C1NC(=O)N(CCc2ccc(F)cc2)C(=O)/C1=C/C=C/c1ccccc1`, the activity change, negative = cytotoxicity was 0.109% (inactive).

As to `COc1ccc(Cl)cc1S(=O)(=O)Nc1ccc2c(c1)n(C)c(=O)n2C`, the activity change, negative = cytotoxicity was -1.58% (inactive).

For the compound `COc1ccc(CNc2ncc(-c3ccc(F)cc3)n2C)c2ccccc12`, the activity change, negative = cytotoxicity was 2.68% (inactive).

As to `O=C(O)c1ccc(N/N=C/c2cc(Br)cs2)cc1`, the activity change, negative = cytotoxicity is -5.62% (inactive).

Take `C[C@@H]1CN([C@@H](C)CO)C(=O)c2cccc(NC(=O)Nc3ccccc3)c2O[C@@H]1CN(C)Cc1ccc(-c2ccccc2)cc1`: the activity change, negative = cytotoxicity was -1.33% (inactive).

With `CCc1ccc(/C=C2\SC(=S)N(CCCC(=O)NC3=NCCS3)C2=O)cc1`, the activity change, negative = cytotoxicity is 1.62% (inactive).

As for `CC(C)(C)c1ccc(Oc2ccc(NC(=O)C3CC=CCC3C(=O)O)cc2)cc1` (centres undefined), the activity change, negative = cytotoxicity was 6.05% (inactive).

For `CCc1ccc(/C=C2\SC(=S)N(CCCC(=O)Nc3cc(C)on3)C2=O)cc1`, the activity change, negative = cytotoxicity was -3.29% (inactive).

For `CC(C)c1ccccc1NC(=O)COC(=O)CCN1C(=O)/C(=C\C=C\c2ccccc2)SC1=S`, the activity change, negative = cytotoxicity was -0.202% (inactive).

For `CCCn1c(C)cc(C(=O)CN2C(=O)c3ccccc3S2(=O)=O)c1C`, the activity change, negative = cytotoxicity was 11.3% (inactive).

`O=C1C(=O)N(CCS(=O)(=O)c2ccccc2)c2ccccc21`: the activity change, negative = cytotoxicity is 12.4% (inactive).

`COC(=O)Cc1ccc(NC(=O)c2ccccc2Cl)cc1`: the activity change, negative = cytotoxicity was 5% (inactive).

With `C/C(=N\N(c1ccccc1)c1ccccc1)c1ccco1`, the activity change, negative = cytotoxicity was -1.2% (inactive).

For the compound `CC(=O)N1CCCC(c2cc(C(=O)Nc3ccccc3)no2)C1` (centres undefined), the activity change, negative = cytotoxicity was 9.56% (inactive).

As to `COc1ccc(C(=O)NCCNc2nc3cc(C)cc(C)c3cc2C#N)c(OC)c1`, the activity change, negative = cytotoxicity was 0.961% (inactive).

For the compound `CCc1ccc(Cn2ncc3c(C(=O)O)cc(C)nc32)cc1`, the activity change, negative = cytotoxicity is 17.3% (inactive).

As to `COc1cc(OC)cc(-c2cc3nc(C)c(CCC(=O)O)c(C)n3n2)c1`, the activity change, negative = cytotoxicity was 0.866% (inactive).

As for `CCCNC(=O)N1[C@H](C#N)[C@H](c2ccc(C#Cc3ccc(F)cc3)cc2)[C@H]1CO`, the activity change, negative = cytotoxicity was -13.6% (inactive).

For the compound `CCCCN=C(NNc1ccc(Br)cc1)C(=O)OCC`, the activity change, negative = cytotoxicity is -5.32% (inactive).

Turning to `COc1ccc(C(=O)Nc2cccc(C(=O)N/N=C/c3ccc(OC)cc3OC)c2)cc1`, the activity change, negative = cytotoxicity is -1.59% (inactive).

As for `CN(C)[C@@H]1CCC[C@@H]1OC(=O)C(c1ccccc1)c1ccccc1`, the activity change, negative = cytotoxicity was -2.99% (inactive).

With `CO[C@H]1CN(C)C(=O)c2cc(NC(=O)NC(C)C)ccc2OC[C@H](C)N(Cc2ccc(-c3ccccn3)cc2)C[C@@H]1C`, the activity change, negative = cytotoxicity was -4.3% (inactive).

For the compound `Cc1c(CC(=O)NCCCC(=O)O)c(=O)oc2cc3c(cc12)CCC(C)(C)O3`, the activity change, negative = cytotoxicity is -4.88% (inactive).

On to `CN(C)Cc1c(O)ccc2c1O/C(=C\C=C\c1ccccc1)C2=O`, for which the activity change, negative = cytotoxicity is -7.01% (inactive).

For `CC(=O)Nc1ccc(S(=O)(=O)Nc2ccc(N3CCCCC3)cc2)cc1`, the activity change, negative = cytotoxicity was -16.3% (inactive).

With `CCc1cnc(N2[C@H](C#N)[C@H](c3ccc(C#Cc4ccccc4F)cc3)[C@H]2CO)s1`, the activity change, negative = cytotoxicity is -10.8% (inactive).

For `O=c1c2ccccc2oc2ccc(C#CC3(O)CCCCC3)cc12`, the activity change, negative = cytotoxicity is 1.29% (inactive).

As for `CCOc1ccc(-c2cc(CCCC(=O)NCc3ccc(C)cc3)no2)cc1`, the activity change, negative = cytotoxicity was -9.1% (inactive).

With `N#C[C@@H]1[C@H](c2ccc(C#Cc3ccccc3F)cc2)[C@@H](CO)N1C(=O)c1cccnc1`, the activity change, negative = cytotoxicity was 1.54% (inactive).

As for `CCOC(=O)c1c(-c2ccc(C)cc2)csc1NC(=O)CCN1CCOCC1`, the activity change, negative = cytotoxicity is 3.44% (inactive).

On to `N/C(Cc1nc(-c2ccc(F)cc2)cs1)=N\O`, for which the activity change, negative = cytotoxicity was -2.03% (inactive).

Turning to `COc1ccc(C/C(N)=N/OC(C)=O)cc1OC`, the activity change, negative = cytotoxicity was 0.039% (inactive).

For the compound `Cc1ccc(-c2ccc3c(c2)O[C@@H](CN(C)C(=O)Nc2ccc(F)cc2)[C@H](C)CN([C@@H](C)CO)S3(=O)=O)cc1`, the activity change, negative = cytotoxicity was 0.801% (inactive).

On to `O=C(CN1C(=O)c2ccccc2S1(=O)=O)c1ccc(F)cc1`, for which the activity change, negative = cytotoxicity was -6.39% (inactive).

Turning to `COc1ccc(-c2sc3ccccc3c2-c2ccc(OCCN3CCCCC3)cc2)cc1`, the activity change, negative = cytotoxicity is -3.21% (inactive).

On to `C=CC[n+]1c(-c2ccc(C)cc2)csc1Nc1ccc(NC(C)=O)cc1`, for which the activity change, negative = cytotoxicity is -9.93% (inactive).

Consider `COc1ccc(S(=O)(=O)N=Nc2c(O)[nH]c3ccccc23)cc1`, for which the activity change, negative = cytotoxicity was 8.74% (inactive).

The values above are taken from PubChem BioAssay AID720587 (Broad Institute, 2013).
